Holding throughout (type): cell-based
The test system of assay [1] is liver cancer cell line HepG2. Kind of assay: Various human cancer cell growth inhibition test: HepG2. The note with it: CellTiter-Glo, read-out: GI50 value (concentration necessary for inhibiting 50% of cell growth). The source says:
(§1) A breast cancer cell line BT-549 (obtained from American Type Culture Collection (ATCC)), a uterus cancer cell line C-33A (obtained from ATCC), an ovary cancer cell line PA-1 (obtained from ATCC), a large-cell lung cancer cell line NCI-H460 (obtained from ATCC), a small-cell lung cancer cell line NCI-H82 (obtained from ATCC), a kidney cancer cell line ACHN (obtained from ATCC), a pancreatic cancer cell line BxPC-3 (obtained from ATCC), a malignant melanoma cell line A375 (obtained from ATCC), a throat cancer cell line FaDu (obtained from ATCC), a medulloblastoma cell line Daoy (obtained from ATCC), a cutaneous epithelioid sarcoma cell line VA-ES-BJ (obtained from ATCC), a rhabdomyosarcoma cell line A-204 (obtained from ATCC), a prostate cancer cell line DU145 (obtained from ATCC), a bladder cancer cell line T24 (obtained from ATCC), a lymphoma cell line SR (obtained from ATCC), a neuroblastoma cell line SH-SY5Y (obtained from DS Pharma Biomedical Co., Ltd.), a liver cancer cell line HepG2 (obtained from DS Pharma Biomedical Co., Ltd.), a stomach cancer cell line HGC-27 (obtained from DS Pharma Biomedical Co., Ltd.), and a multiple myeloma cell line NCI-H929 (obtained from DS Pharma Biomedical Co., Ltd.) were used as human cancer cell lines.
(§2) Each cell line was cultured in a cell culture medium recommended by ATCC or DS Pharma Biomedical Co., Ltd. and inoculated at 0.3 to 5.0×10^3 cells/well to a 96-well plate. The cells were cultured overnight in a carbon dioxide incubator of 37° C. containing 5% carbon dioxide. The medium was replaced with a fresh medium on the next day, then replaced with a mixed solution of a DMSO solution of a test compound with varying concentrations and a culture medium (final DMSO concentration: 0.1%), and left standing in a carbon dioxide incubator (day 0). IV-361, IV-379, IV-3, IV-215, IV-299, IV-669, IV-1049, and palbociclib (for comparison) were used as test compounds. For a control group, DMSO was added instead of the DMSO solution of the test compound to a cell culture medium (final DMSO concentration: 0.1%).
(§3) After culture for a predetermined period, the ATP activity of BT-549, C-33A, PA-1, NCI-H460, NCI-H82, ACHN, BxPC-3, A375, FaDu, Daoy, VA-ES-BJ, A-204, DU145, T24, and SR was measured by using ATPlite (manufactured by PerkinElmer, Inc.). The ATP activity of SH-SY5Y, HepG2, HGC-27, and NCI-H929 was measured by using CellTiter-Glo (manufactured by Promega Corp.).
(§4) The rate of inhibition of cell growth (%) was calculated according to the expression given below. Specifically, in the case where the difference between the ATP activity before culture (day 0) and the ATP activity after culture in the test compound-administered group is the same as the difference between the ATP activity before culture (day 0) and the ATP activity after culture in the control group, the rate of inhibition of cell growth is 0%. Rate of inhibition of cell growth=(1−((ATP activity of the test compound-administered group after culture)−(ATP activity of the test compound-administered group on day 0))/((ATP activity of the control group after culture)−(ATP activity of the control group on day 0)))×100
(§5) The concentration of the test compound necessary for inhibiting 50% of cell growth (GI50 value) was calculated by using EXSUS (version 8.1.0, manufactured by CAC Exicare Corp.).
(In general: In ATP-based viability assays light output follows the ATP content of the culture.)

In assay [2] the test system is bladder cancer cell line T24. Put plainly: Various human cancer cell growth inhibition test: T24. The note with it: ATPlite, read-out: GI50 value (concentration necessary for inhibiting 50% of cell growth).
Source text: as §1, §2, §3, §4, §5

For assay [3], the system named is cutaneous epithelioid sarcoma cell line VA-ES-BJ. Kind of assay: Various human cancer cell growth inhibition test: VA-ES-BJ. Particulars: ATPlite, read-out: GI50 value (concentration necessary for inhibiting 50% of cell growth).
Source text: as §1, §2, §3, §4, §5

Another assay deals with lymphoma cell line SR. Kind of assay: Various human cancer cell growth inhibition test: SR. The note with it: ATPlite, read-out: GI50 value (concentration necessary for inhibiting 50% of cell growth).
Source text: as §1, §2, §3, §4, §5

Assay [4] concerns prostate cancer cell line DU145. Put plainly: Various human cancer cell growth inhibition test: DU145. Particulars: DU 145, ATPlite, read-out: GI50 value (concentration necessary for inhibiting 50% of cell growth).
Source text: as §1, §2, §3, §4, §5

For the next assay, the system named is IL-2 production. Put plainly: Human PBMC CD3/CD28-induced IL-2 production inhibition test. Particulars: 48 h; human PBMC, CD3/CD28 stimulation, culture for 2 days, ELISA; read-out: IC50 value, IL-2 production inhibition. The protocol: PBMC (peripheral blood mononuclear cell) was separated and collected by using Ficoll-Paque (manufactured by GE Healthcare Japan Corp.) from blood collected from a healthy human adult in the presence of heparin. A RPMI1640 medium containing 10% FBS, 1% penicillin/streptomycin/amphotericin B, essential amino acids, and pyruvic acid and containing a test compound dissolved in DMSO and 2 μg/mL CD28 was added at 100 μL/well to T cell Activation Plate Anti-Human CD3 96-well plate (manufactured by Becton, Dickinson and Company), and subsequently, a PBMC suspension prepared such that the number of cells was 2×10^6 cells/mL was added thereto at 100 μL/well (final DMSO concentration: 0.1%). A RPMI1640 medium containing 10% FBS and containing 0.1% DMSO and 2 μg/mL CD28 was similarly added to wells not supplemented with the test compound. After culture for 2 days in a carbon dioxide incubator, the culture supernatant was collected. The collected culture supernatant was stored at −20° C. until IL-2 content measurement.
In the measurement of an L-2 content in the culture supernatant, a sandwich ELISA kit (Quantikine Human IL-2, manufactured by R&D Systems, Inc.) was used. The L-2 content of each sample was calculated from the calibration curve of Standard IL-2 included in the kit. […] A test compound concentration necessary for inhibiting 50% of L-2 production (IC50 value) was calculated from the concentration of the added test compound and the rate of inhibition of IL-2 production by the test compound by using EXSUS (version 8.1.0, manufactured by CAC Exicare Corp.).

Assay [5] deals with Human keratinocytes (NHEK-Neo Pooled). Kind of assay: Human keratinocyte growth inhibition assay. Particulars: 48 h, culture for 2 days, Cell Counting Kit-8. The protocol: The measurement of a human keratinocyte growth inhibitory effect was carried out by modifying the method of Schafer et al. (British Journal of Pharmacology, 159, 842 (2011)).
Human keratinocytes (NHEK-Neo Pooled, manufactured by Lonza Group AG) were cultured in KGM-Gold keratinocyte growth medium Bullet Kit (manufactured by Lonza Group AG) and inoculated at 2×10^3 cells/well to a 96-well plate. After overnight culture in a carbon dioxide incubator, a test compound dissolved in DMSO (final DMSO concentration: 0.1%) was added thereto and left standing in a carbon dioxide incubator. After culture for 2 days, the absorbance thereof was measured by using Cell Counting Kit-8 (manufactured by Dojindo Laboratories).
The rate of inhibition of cell growth at each concentration was calculated from the test compound concentration and the absorbance of Cell Counting Kit-8, and the concentration of the test compound necessary for inhibiting 50% of cell growth (GI50 value) was calculated by using EXSUS (version 8.1.0, manufactured by CAC Exicare Corp.).

As usually defined, the IC50 is the midpoint of a concentration-inhibition curve.

For the compound `Cc1cccc(Br)c1NC(=O)N1Cc2c(NC(=O)C3([Si](C)(C)C)CCC3)n[nH]c2C1(C)C` [IV-299, N-(2-Bromo-6-methylphenyl)-6,6-dimethyl-3-[1-(trimethylsilyl)cyclobutanecarboxamido]-4,6-dihydropyrrolo[3,4-c]pyrazole-5 (1H)-carboxamide], the GI50 is 300 to 1000 nM in assay [1]; less than 300 nM in assay [2]; less than 300 nM in assay [3]; less than 300 nM with lymphoma cell line SR; less than 300 nM in assay [4]. The IC50 in the assay on IL-2 production is not above 100 nM.
Take `CC1(C)c2[nH]nc(NC(=O)C3([Si](C)(C)C)CCC3)c2CN1C(=O)Nc1c(F)ccc2ccoc12` [IV-1049, N-(6-Fluorobenzofuran-7-yl)-6,6-dimethyl-3-[1-(trimethylsilyl)cyclobutanecarboxamido]-4,6-dihydropyrrolo[3,4-c]pyrazole-5 (1H)-carboxamide]: the GI50 (in assay [1]; in assay [2]; in assay [3]; in the assay with lymphoma cell line SR; in assay [4]) was less than 300 nM in each case. Moreover, the IC50 with IL-2 production is not above 100 nM.
`Cc1cccc(F)c1NC(=O)N1Cc2c(NC(=O)C3([Si](C)(C)C)CCC3)n[nH]c2C1(C)C` [IV-129, N-(2-Fluoro-6-methylphenyl)-6,6-dimethyl-3-[1-(trimethylsilyl)cyclobutanecarboxamido]-4,6-dihydropyrrolo[3,4-c]pyrazole-5 (1H)-carboxamide] returned a GI50 in assay [5] not above 500 nM.
Take `Cc1cccc(Cl)c1NC(=O)N1Cc2c(NC(=O)C3([Si](C)(C)C)CCC3)n[nH]c2C1(C)C` [IV-215, N-(2-Chloro-6-methylphenyl)-6,6-dimethyl-3-[1-(trimethylsilyl)cyclobutanecarboxamido]-4,6-dihydropyrrolo[3,4-c]pyrazole-5 (1H)-carboxamide]: the GI50 is less than 300 nM in assay [1]; less than 300 nM in assay [2]; less than 300 nM in assay [3]; not above 500 nM in assay [5]; less than 300 nM in the assay on lymphoma cell line SR; less than 300 nM in assay [4]. Also, the IC50 in the assay with IL-2 production is not above 100 nM.
As for `Cc1ccc(F)cc1NC(=O)N1Cc2c(NC(=O)C3([Si](C)(C)C)CCC3)n[nH]c2C1(C)C` [IV-361, N-(5-Fluoro-2-methylphenyl)-6,6-dimethyl-3-[1-(trimethylsilyl)cyclobutanecarboxamido]-4,6-dihydropyrrolo[3,4-c]pyrazole-5 (1H)-carboxamide], the GI50 in assay [1] was 300 to 1000 nM; in assay [2], less than 300 nM; in assay [3] it was less than 300 nM; in assay [5] it was not above 500 nM; in the assay on lymphoma cell line SR it was less than 300 nM; in assay [4], less than 300 nM. Also, the IC50 in the assay with IL-2 production was not above 100 nM.
As to `Cc1ccc(C)c(NC(=O)N2Cc3c(NC(=O)C4([Si](C)(C)C)CCC4)n[nH]c3C2(C)C)c1` [IV-379, N-(2,5-Dimethylphenyl)-6,6-dimethyl-3-[1-(trimethylsilyl)cyclobutanecarboxamido]-4,6-dihydropyrrolo[3,4-c]pyrazole-5(1H)-carboxamide], the GI50 in assay [1] is less than 300 nM; in assay [2] it was less than 300 nM; in assay [3], less than 300 nM; in assay [5] it was not above 500 nM; in the assay with lymphoma cell line SR, less than 300 nM; in assay [4], less than 300 nM. For the same compound, the IC50 in the assay on IL-2 production is not above 100 nM.
For the compound `CC1(C)c2[nH]nc(NC(=O)C3([Si](C)(C)C)CCC3)c2CN1C(=O)Nc1ccccc1F` [IV-3, N-(2-Fluorophenyl)-6,6-dimethyl-3-[1-(trimethylsilyl)cyclobutanecarboxamido]-4,6-dihydropyrrolo[3,4-c]pyrazole-5(1H)-carboxamide], the GI50 in assay [1] is 300 to 1000 nM; in assay [2] it was less than 300 nM; in assay [3] it was less than 300 nM; in the assay with lymphoma cell line SR it was less than 300 nM; in assay [4] it was less than 300 nM. Also, the IC50 with IL-2 production was not above 100 nM.
For the compound `COc1cccc(Cl)c1NC(=O)N1Cc2c(NC(=O)C3([Si](C)(C)C)CCC3)n[nH]c2C1(C)C` [IV-247, N-(2-Chloro-6-methoxyphenyl)-6,6-dimethyl-3-[1-(trimethylsilyl)cyclobutanecarboxamido]-4,6-dihydropyrrolo[3,4-c]pyrazole-5(1H)-carboxamide], in assay [5], the GI50 is not above 500 nM.
In the case of `Cc1ccc(C)c(NC(=O)N2Cc3c(NC(=O)C4([Si](C)(C)C)CCC4)n[nH]c3C2(C)C)c1F` [IV-669, N-(2-Fluoro-3,6-dimethylphenyl)-6,6-dimethyl-3-[1-(trimethylsilyl)cyclobutanecarboxamido]-4,6-dihydropyrrolo[3,4-c]pyrazole-5(1H)-carboxamide], the GI50 (in assay [1]; in assay [2]; in assay [3]; in the assay with lymphoma cell line SR; in assay [4]) was less than 300 nM in each case. Further, the IC50 with IL-2 production is not above 100 nM.

For the origin of these results see patent publication US10894798B2, “Substituted dihydropyrrolopyrazole derivative” (UBE INDUSTRIES, LTD., priority 2015, dated 2021).
